Assay results from patent US20250290915A1, “METHOD FOR PREDICTING RESPONSIVENESS TO THERAPY” (CANCERTAIN LIMITED, priority 2022, published 2025).

Test system: Circulating Tumour Cells (CTCs) from a patient with lung cancer (adenocarcinoma)
Assay: Drug response score assay on CTCs (with CD45+ cells for immunotherapy) from blood, Example 5
Format: cell-based, human
Settings: for Drug response score, conc. 1: conc. 1: Niv 20 μg/ml, Gm 2 μg/ml, Vin 20 μg/ml, Gf 100 ng/ml, E 0.75 μg/ml, Afa 20 ng/ml, Metho 0.5 μg/ml, Cz 200 ng/ml, Pal 40 ng/ml (CTCs); for Drug response score, conc. 1 / Drug response score, conc. 2: Pem 20 μg/ml (CTCs + CD45+ cells); for Drug response score, conc. 1 / Drug response score, conc. 2 / Drug response score, conc. 3 / Drug response score, conc. 4: t96h; for Drug response score, conc. 2: conc. 2: Niv 20 μg/ml, Gm 10 μg/ml, Vin 40 μg/ml, Gf 200 ng/ml, E 1.5 μg/ml, Afa 50 ng/ml, Metho 1 μg/ml, Cz 1000 ng/ml, Pal 80 ng/ml (CTCs); for Drug response score, conc. 3: conc. 3: Niv 80 μg/ml, Pem 100 μg/ml (CTCs + CD45+ cells), Gm 20 μg/ml, Vin 80 μg/ml, Gf 600 ng/ml, E 3 μg/ml, Afa 100 ng/ml, Metho 2 μg/ml, Cz 2000 ng/ml, Pal 160 ng/ml (CTCs); for Drug response score, conc. 4: conc. 4: Niv 160 μg/ml, Pem 160 μg/ml (CTCs + CD45+ cells), Gm 40 μg/ml, Vin 200 μg/ml, Gf 1200 ng/ml, E 6 μg/ml, Afa 150 ng/ml, Metho 4 μg/ml, Cz 4000 ng/ml, Pal 320 ng/ml (CTCs); for Drug sensitivity as calculated by the assay (interpretation of Drug Response Scores): Table 17
Description: CD45^+ cells and circulating tumour cells (CTCs) were isolated from a blood sample provided by each subject.
CD45 separation was performed by adding human CD45 microbeads (50 μl/ml blood), incubating for 15 minutes at 4° C. and then processing using an AutoMACS machine. This separates the blood sample into CD45^+ and CD45^−cells in 2 separate falcons. The falcon tubes are then centrifuged at 1200 rpm for 5 minutes.
The supernatant was removed from the CD45^+falcon tube, and the cells resuspended in DMEM with 2 μl Cell Tox, 2 μl MT and 2 μl MT. 20 μl of the resuspended CD45^+ cells was then plated in each well which will contain an immunotherapy treatment.
The supernatant was removed from the CD45^−falcon tube, and the CD45^−cells contacted with 100 μl of FcR block and 100 μl of CD326 (EpCAM) MicroBeads, followed by incubation at […] 4° C. for 30 minutes. The CD45^−cells were then processed using an AutoMACS machine to separate the EpCAM positive and negative cells into 2 separate falcon tubes. The EpCAM-cells were discarded. The supernatant was removed from the EpCAM^+ cells, and the cells resuspended in DMEM with 2 μl Cell Tox, 2 μl MT and 2 μl MT. 20 μl of the resuspended pellet was then added to all sample wells excluding a blank. After all wells are added to, a cell count was conducted on the […] to determine the number of circulating tumour cells (CTCs).
The different cell types were each divided equally into populations, depending on the number of drugs/concentrations to be tested and plated on a cell-culture plate pre-coated with a scaffold of polycaprolactone (PCL) electrospun fibres and incubated at 37° C., 5% CO2, for 5 to (typically 10) minutes to facilitate cell attachment. After attachment, an initial imaging step was carried out using the RealTime-Glo™ MT assay from Promega (Catalogue No. G9711)) and the CellTox™ Green Cytotoxicity Assay (Promega, Catalogue No. G8741), carried out according to manufacturer's instructions. Following this initial imagining, the immunotherapeutic and/or chemotherapeutic agents were added to the cell populations as indicated below. After 10 minutes, the imagining step was repeated. The cell populations were then incubated at 37° C., 5% CO2 for 48 hours. The imaging step was then repeated. The cell populations were then re-dosed with the same immunotherapeutic and/or chemotherapeutic agents as indicated below, and incubated at 37° C., 5% CO2 for a further 48 hours. After this second 48 hour incubation, the imagining step was repeated for a final time.
At the end of this culture period, dose response scores were calculated using a normalized drug response metric as described in Gupta et al. (Communications Biology volume 3, Article number: 42 (2020), https://doi.org/10.1038/s42003-020-0765-z). The start readout for a given immunotherapeutic or chemotherapeutic agent at a given concentration was the to readout for said immunotherapeutic or chemotherapeutic agent at a specified concentration. The end readout for a given immunotherapeutic or chemotherapeutic agent at a given concentration was the final timepoint reading (t96h) for said immunotherapeutic or chemotherapeutic agent at a specified concentration.
The positive control start readout for a given drug/concentration was the to readout for the corresponding drug at a specified concentration. The positive control end readout for the corresponding drug at a specified concentration was the final timepoint reading (t96h) for the corresponding blank well.
The negative control start and end readouts for a given immunotherapeutic or chemotherapeutic agent at a given concentration were the to and final timepoint reading (t96h) respectively for blank cell or blank immuno cell well respectively.
The sensitivity or resistance of a subject's cancer to a given immunotherapeutic or chemotherapeutic agent was determined based on the calculated drug response score as shown in Table 2. […]

Substance	Drug response score, conc. 1	Drug response score, conc. 2	Drug response score, conc. 3	Drug response score, conc. 4	Drug sensitivity as calculated by the assay (interpretation of Drug Response Scores) (lung cancer CTCs)	effectiveness on Circulating Tumour Cells (CTCs) under laboratory conditions (lung cancer CTCs)
Pembrolizumab	−0.34	−0.15	0.05	0.24	S++	
Nivolumab	−0.45	−0.80	−0.12	−0.22	S++	more effective than Pembrozulimab
